Results from BindingDB's records for doi:10.1080/14756360802187612 (Ben-Gurion University of The Negev, 2009).
pKi: −log10 of the molar value. Structures can show the parent of a compound that is named as a salt.

Target: Tryptophanase (Escherichia coli (strain K12), UniProt P0A853)
Assay: Enzyme Inhibition Assay
Details: pH 7.8; 25 °C
From the text: Enzyme inhibition assay using tryptophanase.

Chain of Tryptophanase (P0A853 whole entry): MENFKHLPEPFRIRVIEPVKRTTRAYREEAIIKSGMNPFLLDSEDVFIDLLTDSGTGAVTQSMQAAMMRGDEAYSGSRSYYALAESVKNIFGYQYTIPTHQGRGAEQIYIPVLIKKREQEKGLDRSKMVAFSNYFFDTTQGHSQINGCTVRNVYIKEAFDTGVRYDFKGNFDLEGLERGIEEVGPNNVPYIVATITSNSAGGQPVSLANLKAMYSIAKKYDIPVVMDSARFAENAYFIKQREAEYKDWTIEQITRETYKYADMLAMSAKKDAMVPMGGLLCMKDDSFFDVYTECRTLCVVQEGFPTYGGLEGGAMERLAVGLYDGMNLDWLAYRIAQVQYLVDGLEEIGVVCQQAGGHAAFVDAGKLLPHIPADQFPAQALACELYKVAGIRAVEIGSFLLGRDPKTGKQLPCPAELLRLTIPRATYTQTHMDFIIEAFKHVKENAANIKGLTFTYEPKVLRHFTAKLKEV

Row | pKi | SMILES
1 | 4.28 | CCOC(=O)C(N)Cc1c[nH]c2ccccc12 [L-tryptophan-ethylester (p-toluene sulfuric acid salt)]
2 | 4.32 | CC(=O)NC(Cc1c[nH]c2ccccc12)C(=O)O (configuration not stated) [N-acetyl tryptophan]
